In patent US4062964A, “Antifertility-combinations” (Ciba-Geigy Corporation, priority 1976, dated 1977):
Where two headings read alike, the source gives them in different places.

How the values were obtained:
pregnant rats [1] = assay: Abortifacient activity of AGP in pregnant rats (3 doses on day 9; large single or daily oral doses); assay type: in vivo, rat
Protocol: (§1) The efficacy of the compositions according to the invention is demonstrable in animal tests, using advantageously mammals, such as rats, hamsters or baboons, as test objects. Thus, for example, adult female rats weighing 190-250 grams are housed in a "reverse room" as described in Contraception 3, 347 (1971), with the exception that the animals have 14 hours of light between 5 P.M. and 7 A.M., and 10 hours of darkness from 7 A.M. to 5 P.M. They are placed with adult male rats from 10 A.M. to 2 P.M. (i.e. "their midnight" ± 2 hours) following which vaginal smears are obtained.
(§2) Said antifertility compounds may be administered orally, e.g. in suspension with the excipient compraising 3% (by weight) of carboxymethylcellulose, 1.05% methylcellulose, 0.8% sodium chloride, 0.1% polysorbate 80 and 0.002% thimerosal in water, as a single dose on day 5 of pregnancy (i.e. the day after implantation unless otherwise specified). Prostaglandins may be injected subcutaneously twice (9 A.M. and 3 P.M.) on days 4-7 in a conventional 0.1M phosphate buffer at pH = 7.45. Aminoglutethimide phosphate can also be administered in aqueous solution orally, subcutaneously, intraperitoneally or intravenously. The rats are sacrificed on day 10 or 11 of pregnancy and the uterus is examined for living and dead fetuses and implantation sites. The terms "abortion" and "resorption" are used interchangeably because by day 10 or 11 the uterine scars resulting from either event are indistinguishable by gross inspection.

progesterone levels = assay: Progesterone levels in rats after aminoglutethimide phosphate; assay type: in vivo, rat; settings: large single or daily oral doses
pregnant rats [2] = assay: Combined treatment AGP and PGF2α, resorption of fetuses in pregnant rats; assay type: in vivo, rat
Protocol: as §1, §2

[3] = test system: pregnant Lakeview hamsters; assay: Antifertility effect (percent of litter living) in pregnant hamsters, AGT p.o. and TPF s.c.; assay type: in vivo, hamster
Protocol: Said active ingredients are administered in admixture with the following excipients:
AGT + 3% corn starch + 5% polyethylene glycol 400 + 1 drop of polysorbate 80 per 10 ml of distilled water.
TPF 10 mg per 0.1 ml of ethanol, which solution is diluted with the buffer prepared from 19 ml of 0.2M aqueous monosodium phosphate and 81 ml of 0.2M aqueous disodium phosphate, corrected with the latter to the pH = 7.4.
(§3) Said compositions are administered to pregnant Lakeview hamsters arriving at day 1 postcoitus, which are maintained in a day-night reversed room (11 A.M. to 11 P.M.). Food and water is given ad libitum. Six hamsters per group are used (3 per cage) and each test is carried out with a control group receiving said excipients only. The orally administered AGT is given for 3 consecutive days starting on day 3 postcoitus, at a rate of 5 ml/kg body weight, and these animals are sacrificed on day 10 to 12 postcoitus. The subcutaneously administered TPF is given once on day 5 postcoitus only, at a volume of 0.2 ml per animal, and these animals are sacrificed on day 8 postcoitus. The uterus of each animal is inspected and implantation sites are counted and recorded according to viable or resorbed fetuses. Percent inhibition is determined by comparison of treated groups over the control group.

pregnant rats [4] = assay: Resorption of embryos by s.c. prostaglandins in pregnant rats; assay type: in vivo, rat; settings: for Fetuses / Resorptions / Total Implants: days 4-7
Protocol: as §1, §2
However, when the compounds were injected twice daily (9 a.m. and 3 p.m.) in adequate doses on days 4-7 of gestation, implantation occured at the normal time but this was then followed by resorption of the embryos. […]

pregnant hamsters = assay: Antifertility ED50 in pregnant hamsters; assay type: in vivo, hamster; settings: for ED50: Mesocricetus auratus
Protocol: as §3

rats = assay: Activity of TPF in rats; settings: rat, in vivo
rabbits = assay: Activity of TPF in rabbits; settings: rabbit, in vivo
[5] = test system: conversion of cholesterol to pregnenolone; settings: background; cited from earlier work
progesterone secretion = settings: pregnant and non-pregnant animals and human beings, background; cited from earlier work
[6] = 100 mg/kg × 3 on day 9, i.p., 10 rats
[7] = 100 mg/kg × 3 on day 9, i.v., 3 rats
[8] = 100 mg/kg × 3 on day 9, p.o., 5 rats
[9] = sc, pregnant hamsters, approximative, read-out: ED50 s.c. for antifertility effects

Structure (SMILES): CCC1(c2ccc(N)cc2)CCC(=O)NC1=O (stereo not shown) [AGP, aminoglutethimide phosphate]
- Fetuses (pregnant rats [1]; [6]): 4.4 ± 2.2
- Resorptions (pregnant rats [1]; [6]): 8.9 ± 2.0
- Total Implants (pregnant rats [1]; [6]): 13.3 ± 0.6
- Fetuses (pregnant rats [1]; [7]): 4.3 ± 4.3
- Resorptions (pregnant rats [1]; [7]): 10.3 ± 4.7
- Total Implants (pregnant rats [1]; [7]): 14.7 ± 0.7
- Fetuses (pregnant rats [1]; [8]): 13.8 ± 0.9
- Resorptions (pregnant rats [1]; [8]): 0.4 ± 0.4
- Total Implants (pregnant rats [1]; [8]): 14.2 ± 0.7
- abortifacient on day 9 (pregnant rats [1]; given every 8 hours, i.v. versus p.o., rats): abortifacient on day 9 when given every 8 hours i.v., but not p.o.
- abortifacient activity (pregnant rats [1]; large single or daily oral doses, rats): very resistant to the abortifacient activity
- decrease of progesterone levels (progesterone levels): more than 70%
- resorption of fetuses in rats (pregnant rats [2]; AGP 30 mg/kg s.c. days 3-5 of pregnancy): did not induce resorption of fetuses
- Fetuses (pregnant rats [2]; AGP 30 mg/kg s.c., days 3-5): 12.2 ± 1.8
- Resorptions (pregnant rats [2]; AGP 30 mg/kg s.c., days 3-5): 1.6 ± 1.1
- Total Implants (pregnant rats [2]; AGP 30 mg/kg s.c., days 3-5): 13.8 ± 1.0

Structure (SMILES): CC[C@]1(c2ccc(N)cc2)CCC(=O)NC1=O.CC[C@]1(c2ccc(N)cc2)CCC(=O)NC1=O.O.O=C(O)C(O)C(O)C(=O)O.O=C(O)C(O)C(O)C(=O)O [AGT, d-aminoglutethimide d-tartrate hemihydrate]
- effective as antifertility agent ([3]; 500 mg/kg/p.o.): 100%
- PERCENT OF LITTER LIVING ([3]; AGT 100 mg/kg p.o. day 3-5, TPF 0): 90%
- PERCENT OF LITTER LIVING ([3]; AGT 250 mg/kg p.o. day 3-5, TPF 0): 68%
- PERCENT OF LITTER LIVING ([3]; AGT 500 mg/kg p.o. day 3-5, TPF 0): 0%

Structure (SMILES): CCCCC[C@H](O)/C=C/[C@H]1[C@H](O)CC(=O)[C@@H]1CCCCCCC(=O)O [PGE1]
- Fetuses (pregnant rats [4]; 200 μg/rat s.c. × 2 daily): 10.8 ± 2.7
- Resorptions (pregnant rats [4]; 200 μg/rat s.c. × 2 daily): 0
- Total Implants (pregnant rats [4]; 200 μg/rat s.c. × 2 daily): 10.8 ± 2.7
- Fetuses (pregnant rats [4]; 400 μg/rat s.c. × 2 daily): 10.6 ± 2.7
- Resorptions (pregnant rats [4]; 400 μg/rat s.c. × 2 daily): 0
- Total Implants (pregnant rats [4]; 400 μg/rat s.c. × 2 daily): 10.6 ± 2.7
- Fetuses (pregnant rats [4]; 800 μg/rat s.c. × 2 daily): 0
- Resorptions (pregnant rats [4]; 800 μg/rat s.c. × 2 daily): 7.0 ± 1.9
- Total Implants (pregnant rats [4]; 800 μg/rat s.c. × 2 daily): 7.0 ± 1.9

Structure (SMILES): CCCCC[C@H](O)/C=C/[C@H]1[C@H](O)CC(=O)[C@@H]1C/C=C\CCCC(=O)O [PGE2]
- Fetuses (pregnant rats [4]; 200 μg/rat s.c. × 2 daily): 10.6 ± 2.8
- Resorptions (pregnant rats [4]; 200 μg/rat s.c. × 2 daily): 0
- Total Implants (pregnant rats [4]; 200 μg/rat s.c. × 2 daily): 10.6 ± 2.8
- Fetuses (pregnant rats [4]; 400 μg/rat s.c. × 2 daily): 6.6 ± 2.8
- Resorptions (pregnant rats [4]; 400 μg/rat s.c. × 2 daily): 0
- Total Implants (pregnant rats [4]; 400 μg/rat s.c. × 2 daily): 6.6 ± 2.8
- Fetuses (pregnant rats [4]; 800 μg/rat s.c. × 2 daily): 0
- Resorptions (pregnant rats [4]; 800 μg/rat s.c. × 2 daily): 5.6 ± 2.6
- Total Implants (pregnant rats [4]; 800 μg/rat s.c. × 2 daily): 5.6 ± 2.6
- ED50 (pregnant hamsters; [9]): 2 mg/kg

Structure (SMILES): CCCCC[C@H](O)/C=C/[C@@H]1[C@@H](C/C=C\CCCC(=O)O)[C@@H](O)C[C@H]1O [PGF2α, prostaglandin F2α]
- Fetuses (pregnant rats [4]; 100 μg/rat s.c. × 2 daily): 14.2 ± 0.7
- Resorptions (pregnant rats [4]; 100 μg/rat s.c. × 2 daily): 0
- Total Implants (pregnant rats [4]; 100 μg/rat s.c. × 2 daily): 14.2 ± 0.7
- Fetuses (pregnant rats [4]; 200 μg/rat s.c. × 2 daily): 14.4 ± 0.2
- Resorptions (pregnant rats [4]; 200 μg/rat s.c. × 2 daily): 0.2 ± 0.2
- Total Implants (pregnant rats [4]; 200 μg/rat s.c. × 2 daily): 14.6 ± 0.2
- Fetuses (pregnant rats [4]; 400 μg/rat s.c. × 2 daily): 0
- Resorptions (pregnant rats [4]; 400 μg/rat s.c. × 2 daily): 9.6 ± 2.6
- Total Implants (pregnant rats [4]; 400 μg/rat s.c. × 2 daily): 9.6 ± 2.6
- relative activity versus PGE1 and PGE2 (pregnant rats [4]; s.c. twice daily, days 4-7, rats): about twice as active as PGE1 and PGE2
- resorption of fetuses in rats (pregnant rats [2]; PGF2α 1 mg/kg s.c. on day 5 of pregnancy): did not induce resorption of fetuses
- Fetuses (pregnant rats [2]; PGF2α 1 mg/kg s.c., day 5): 15.4 ± 0.6
- Resorptions (pregnant rats [2]; PGF2α 1 mg/kg s.c., day 5): 0
- Total Implants (pregnant rats [2]; PGF2α 1 mg/kg s.c., day 5): 15.4 ± 0.6
- ED50 (pregnant hamsters; [9]): 0.1 mg/kg
- ED50 (pregnant hamsters; oral, pregnant hamsters, approximative, read-out: ED50 oral for antifertility effects): 7.5 mg/kg

Structure (SMILES): O=C(O)CCCCCCC1OCC(O)C1/C=C/C(O)COc1cccc(C(F)(F)F)c1 (stereo not drawn) [TPF, 7-[3α-(3β-hydroxy-4-(m-trifluoromethylphenoxy)-1-trans-butenyl)-4β-hydroxy-tetrahydro-2β-furyl]-heptanoic acid]
- effective as antifertility agent ([3]; 25 μg/animal/s.c.): 64%
- PERCENT OF LITTER LIVING ([3]; TPF 5 μg s.c. day 5, AGT 0 mg): 98%
- PERCENT OF LITTER LIVING ([3]; TPF 10 μg s.c. day 5, AGT 0 mg): 70%
- PERCENT OF LITTER LIVING ([3]; TPF 25 μg s.c. day 5, AGT 0 mg): 36%
- oral potency relative to PGF2α (pregnant hamsters; oral, more potent than PGF2α): 10-20 times
- oral antifertility effectiveness (pregnant hamsters; oral, pregnant hamsters): orally effective
- ED50 oral for antifertility effects (pregnant hamsters; oral, pregnant hamsters, approximative): 0.31 mg/kg
- ED50 s.c. for antifertility effects (pregnant hamsters; s.c., pregnant hamsters, approximative): 0.1 mg/kg
- activity in rats (rats): active in rats
- activity in rabbits (rabbits): active in rats and rabbits

Structure (SMILES): CCC1(c2ccc(N)cc2)CCC(=O)NC1=O (stereo not shown) [aminoglutethimide]
- conversion of cholesterol to pregnenolone in the steroid pathway [5]: blocks the conversion of cholesterol to pregnenolone
- progesterone secretion (progesterone secretion): inhibits progesterone secretion
